System: SW1271 complex spheroids with HUVEC/MSC, growth, % test/control
Assay: Anticancer human tumor SW1271 cell line growth inhibition [AhR];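 also: spheroids exposed to agents for 7 days before readout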
Details: for IC50: curve of first compound; for viability, T/C: stronger effect = lower value
Method in brief: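 Agents were dosed in half-log steps down from roughly clinical Cmax, or from 10 microM where Cmax was unknown, alone and with AhR antagonists. Read-out: percent test/control growth of tumor spheroids containing HUVEC and MSC stromal cells.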

[1] = second compound 0.1 µM, first compound 0.0316 µM
[2] = second compound 0.1 µM, first compound 0.1 µM
[3] = second compound 0.1 µM, first compound 0.316 µM
[4] = second compound 0.1 µM, first compound 1 µM
[5] = second compound 0.1 µM, first compound 3.16 µM
[6] = second compound 0.1 µM, first compound 10 µM
[7] = second compound 0.316 µM, first compound 0.0316 µM
[8] = second compound 0.316 µM, first compound 0.1 µM
[9] = second compound 0.316 µM, first compound 0.316 µM
[10] = second compound 0.316 µM, first compound 1 µM
[11] = second compound 0.316 µM, first compound 3.16 µM
[12] = second compound 0.316 µM, first compound 10 µM
[13] = second compound 1 µM, first compound 0.0316 µM
[14] = second compound 1 µM, first compound 0.1 µM
[15] = second compound 1 µM, first compound 0.316 µM
[16] = second compound 1 µM, first compound 1 µM
[17] = second compound 1 µM, first compound 3.16 µM
[18] = second compound 1 µM, first compound 10 µM
[19] = second compound 3.16 µM, first compound 0.0316 µM
[20] = second compound 3.16 µM, first compound 0.1 µM
[21] = second compound 3.16 µM, first compound 0.316 µM
[22] = second compound 3.16 µM, first compound 1 µM
[23] = second compound 3.16 µM, first compound 3.16 µM
[24] = second compound 3.16 µM, first compound 10 µM
[25] = second compound 10 µM, first compound 0.0316 µM
[26] = second compound 10 µM, first compound 0.1 µM
[27] = second compound 10 µM, first compound 0.316 µM
[28] = second compound 10 µM, first compound 1 µM
[29] = second compound 10 µM, first compound 3.16 µM
[30] = second compound 10 µM, first compound 10 µM

Q: What does the source list for `Nc1ccn(C2OC(CO)C(O)C2(F)F)c(=O)n1` (stereo not given) + Cc1ccccc1N=Nc1ccc(NC(=O)c2ccnn2C)c(C)c1?
A: IC50 (second compound 0.1 µM): < 0.0316 µM; IC50 (second compound 0.316 µM): 0.0661 µM; IC50 (second compound 1 µM): < 0.0316 µM; IC50 (second compound 3.16 µM): < 0.0316 µM; IC50 (second compound 10 µM): 0.335 µM; viability, T/C [1]: 39.2%; viability, T/C [2]: 48.4%; viability, T/C [3]: 47.2%; viability, T/C [4]: 52.8%; viability, T/C [5]: 41.3%; viability, T/C [6]: 37.2%; viability, T/C [7]: 54.6%; viability, T/C [8]: 49.8%; viability, T/C [9]: 41.8%; viability, T/C [10]: 39.5%; viability, T/C [11]: 39%; viability, T/C [12]: 45.1%; viability, T/C [13]: 41.1%; viability, T/C [14]: 50.1%; viability, T/C [15]: 56.7%; viability, T/C [16]: 41.5%; viability, T/C [17]: 45.6%; viability, T/C [18]: 40.3%; viability, T/C [19]: 43.2%; viability, T/C [20]: 51%; viability, T/C [21]: 40.7%; viability, T/C [22]: 44.2%; viability, T/C [23]: 39.7%; viability, T/C [24]: 48.5%; viability, T/C [25]: 56.5%; viability, T/C [26]: 57.3%; viability, T/C [27]: 50.2%; viability, T/C [28]: 43.1%; viability, T/C [29]: 44.7%; viability, T/C [30]: 50.4%

Q: How did the IC50 (second compound 0.1 µM) turn out when `O=C(C=Cc1cccc(S(=O)(=O)Nc2ccccc2)c1)NO` + Cc1ccccc1N=Nc1ccc(NC(=O)c2ccnn2C)c(C)c1 was run?
A: 0.941 µM

Q: What about the IC50 (second compound 0.316 µM) of the same molecule?
A: 1.43 µM

Q: And the IC50 (second compound 1 µM)?
A: 0.763 µM

Q: What about the IC50 (second compound 3.16 µM) of the same molecule?
A: 1.55 µM

Q: What about the IC50 (second compound 10 µM) of the same molecule?
A: 1.86 µM

Q: What about the viability, T/C [1] of the same molecule?
A: 86%

Q: What about the viability, T/C [2] of the same molecule?
A: 87.1%

Q: What about the viability, T/C [3] of the same molecule?
A: 61.9%

Q: And the viability, T/C [4]?
A: 54.3%

Q: What about the viability, T/C [5] of the same molecule?
A: 26.5%

Q: What about the viability, T/C [6] of the same molecule?
A: 17.8%

Q: And the viability, T/C [7]?
A: 84.3%

Q: What about the viability, T/C [8] of the same molecule?
A: 91%

Q: And the viability, T/C [9]?
A: 64.6%

Q: And the viability, T/C [10]?
A: 59.8%

Q: What about the viability, T/C [11] of the same molecule?
A: 35.5%

Q: And the viability, T/C [12]?
A: 18.9%

Q: And the viability, T/C [13]?
A: 105%

Q: And the viability, T/C [14]?
A: 98.6%

Q: And the viability, T/C [15]?
A: 68.5%

Q: What about the viability, T/C [16] of the same molecule?
A: 48.1%

Q: And the viability, T/C [17]?
A: 23.1%

Q: And the viability, T/C [18]?
A: 28.4%

Q: What about the viability, T/C [19] of the same molecule?
A: 84.4%

Q: What about the viability, T/C [20] of the same molecule?
A: 94%

Q: And the viability, T/C [21]?
A: 86.8%

Q: And the viability, T/C [22]?
A: 57.5%

Q: And the viability, T/C [23]?
A: 36.7%

Q: And the viability, T/C [24]?
A: 22.3%

Q: What about the viability, T/C [25] of the same molecule?
A: 104%

Q: And the viability, T/C [26]?
A: 71.2%

Q: What about the viability, T/C [27] of the same molecule?
A: 88.2%

Q: And the viability, T/C [28]?
A: 57.6%

Q: And the viability, T/C [29]?
A: 38.3%

Q: What about the viability, T/C [30] of the same molecule?
A: 26.1%

Q: `O=C(c1cc(Cc2n[nH]c(=O)c3ccccc23)ccc1F)N1CCN(C(=O)C2CC2)CC1` + Cc1ccccc1N=Nc1ccc(NC(=O)c2ccnn2C)c(C)c1 was tested. Which IC50 (second compound 0.1 µM) did it give?
A: > 10 µM

Q: And the IC50 (second compound 0.316 µM)?
A: > 10 µM

Q: What about the IC50 (second compound 1 µM) of the same molecule?
A: > 10 µM

Q: What about the IC50 (second compound 3.16 µM) of the same molecule?
A: > 10 µM

Q: And the IC50 (second compound 10 µM)?
A: > 10 µM

Q: And the viability, T/C [1]?
A: 82.5%

Q: What about the viability, T/C [2] of the same molecule?
A: 101%

Q: What about the viability, T/C [3] of the same molecule?
A: 98.3%

Q: And the viability, T/C [4]?
A: 91.4%

Q: And the viability, T/C [5]?
A: 88.4%

Q: And the viability, T/C [6]?
A: 78.9%

Q: And the viability, T/C [7]?
A: 106%

Q: And the viability, T/C [8]?
A: 104%

Q: What about the viability, T/C [9] of the same molecule?
A: 102%

Q: What about the viability, T/C [10] of the same molecule?
A: 98.7%

Q: And the viability, T/C [11]?
A: 96.3%

Q: What about the viability, T/C [12] of the same molecule?
A: 90.8%

Q: What about the viability, T/C [13] of the same molecule?
A: 79.5%

Q: And the viability, T/C [14]?
A: 116%

Q: And the viability, T/C [15]?
A: 104%

Q: And the viability, T/C [16]?
A: 92.5%

Q: And the viability, T/C [17]?
A: 114%

Q: And the viability, T/C [18]?
A: 98.3%

Q: And the viability, T/C [19]?
A: 94.3%

Q: And the viability, T/C [20]?
A: 109%

Q: What about the viability, T/C [21] of the same molecule?
A: 104%

Q: And the viability, T/C [22]?
A: 81.9%

Q: What about the viability, T/C [23] of the same molecule?
A: 99.2%

Q: And the viability, T/C [24]?
A: 100%

Q: And the viability, T/C [25]?
A: 89.4%

Q: And the viability, T/C [26]?
A: 107%

Q: What about the viability, T/C [27] of the same molecule?
A: 108%

Q: What about the viability, T/C [28] of the same molecule?
A: 83.5%

Q: And the viability, T/C [29]?
A: 89.5%

Q: And the viability, T/C [30]?
A: 102%
